Columns and labels:
[1] = tested on: patients with DVT; assay: Putative indirect comparison of idrabiotaparinux with standard treatment (EQUINOX OR times van Gogh DVT OR); format: in vivo, human; conditions: 95% CI: 0.061-1.020; p value 0.053; calculated as 0.200 times 1.245
Procedure: For major bleedings, the putative odds ratio (OR) comparing idrabiotaparinux to the standard treatment (OR=0.249 [95% CI: 0.061-1.020]) yielded a p value of 0.053; this putative OR was calculated as OR of idrabiotaparinux versus idraparinux in EQUINOX (0.200) times OR of idraparinux versus standard treatment in van Gogh DVT (1.245).

[2] = tested on: patients with acute symptomatic DVT; assay: EQUINOX clinical trial: bleeding (safety) and efficacy over 6 months of treatment; format: in vivo, human; conditions: for Kaplan-Meier cumulative incidence of first bleeding (any bleeding), comparison of the two groups: FIG. 1; for Major bleeding, number of patients [n] / Any bleeding (clinically relevant major or non-major), % of patients / Any bleeding (clinically relevant major or non-major), number of patients [n] / Major bleeding, % of patients (incidence): first study drug administration up to D182; for Any bleeding (clinically relevant major or non-major), % of patients: crude rate; for Any bleeding (clinically relevant major or non-major), number of patients [n]: once-weekly s.c., equimolar doses (idrabiotaparinux 3.0 mg, idraparinux 2.5 mg); for Major bleeding, % of patients (incidence): p=0.006 Fisher's exact test
Description: (§1) This trial was aimed at studying the bioequipotency of idrabiotaparinux and idraparinux, as assessed by anti-Xa activity at month 6, in patients with acute symptomatic DVT, as well as studying the ability to neutralize idrabiotaparinux with avidin, and also at documenting the safety and efficacy of idrabiotaparinux and idraparinux.
The study was an international, multi-center, double-blind, randomized, with two parallel groups phase III study, in patients treated for acute symptomatic DVT. In order to get 600 patients (300 patients in each treatment group) who completed the 6-month treatment with idrabiotaparinux or idraparinux, 700 patients with confirmed symptomatic DVT of the lower limbs were to be randomized to either idrabiotaparinux (n=350 patients) or idraparinux (n=350 patients). 300 completed patients per group, with a 6-month extent of exposure to the drug, were considered as an adequate sample size to assess clinical safety of idrabiotaparinux, i.e. to characterize the pattern of adverse events over time.
During the study period, patients were treated with equimolar doses of idrabiotaparinux (3.0 mg) or of idraparinux (2.5 mg). The drug was injected subcutaneously, once-weekly.
For safety, the main endpoints were clinically relevant bleeding (major or clinically relevant non-major), as classified by the Central Independent Adjudication Committee (hereafter “CIAC”), and death (cause of death validated by the CIAC).
The safety population consisted of all randomized patients who took at least one dose of study medication (all treated population). Patients were analyzed according to the treatment they actually received.
The main safety analysis period was the randomized treatment period, defined as the period from first study drug administration (taken as Day 1) up to Day 182 (hereafter “D182”).
The numbers and percentages of patients with clinically relevant bleeding within 6 months (from first study drug administration up to Day 182) were presented by treatment group. The rate of any clinically relevant bleeding was calculated by dividing the number of patients with this event by the number of treated patients (crude rate). Bleeding rate estimates and exact 95% confidence interval (hereafter “C1”) were presented by treatment group. Cumulative incidences of any clinically relevant bleeding during the on-treatment period were also described by treatment group using the Kaplan-Meier method. Time to first clinically relevant bleeding was censored at the minimum day between: Day 182; the day of last study drug administration+7 days; the day of death; and the day of last clinical event assessment giving any information on bleeding symptoms.
The numbers and percentages (crude rates) of patients with major bleedings within 6 months (from first study drug administration up to Day 182) were also presented by treatment group. The criteria used by the CIAC to classify major bleedings were summarized according to the worst severity. The order of severity was: fatal bleeding, including fatal intra-cranial hemorrhage (hereafter “ICH”), non-fatal bleeding within a critical organ, non-fatal bleeding with fall in hemoglobin or transfusion.

[3] = tested on: activated factor X; assay: EQUINOX clinical trial: bioequipotency assessed by anti-Xa activity; format: in vivo, human; conditions: equimolar doses
Description: as §1

[4] = tested on: patients with DVT; conditions: 6 months after start of treatment (Day 183), N. Engl. J. Med., 2007, 357, 1094-104; cited from earlier work
[5] = tested on: patients with DVT; assay: VAN GOGH clinical trial (DVT): bleeding incidence, idraparinux versus standard therapy; format: in vivo, human
Description: According to the results published in N. Engl.

[6] = major bleedings up to D182 by adjudication criterion, all treated population

For CO[C@H]1O[C@H](COS(=O)(=O)O)[C@@H](O[C@@H]2O[C@@H](C(=O)O)[C@@H](O[C@H]3O[C@H](COS(=O)(=O)O)[C@@H](O[C@@H]4O[C@H](C(=O)O)[C@@H](O[C@H]5O[C@H](COS(=O)(=O)O)[C@@H](OC)[C@H](OC)[C@H]5NC(=O)CCCCCNC(=O)CCCC[C@@H]5SC[C@@H]6NC(=O)N[C@@H]65)[C@H](OC)[C@H]4OC)[C@H](OS(=O)(=O)O)[C@H]3OS(=O)(=O)O)[C@H](OC)[C@H]2OC)[C@H](OS(=O)(=O)O)[C@H]1OS(=O)(=O)O [Idrabiotaparinux, idrabiotaparinux], the “Putative odds ratio (OR) for major bleedings, idrabiotaparinux versus standard treatment” value [1] was 0.249, the “Odds ratio for major bleedings, idrabiotaparinux versus idraparinux” value ([2]; EQUINOX) was 0.200 and the “Kaplan-Meier cumulative incidence of first bleeding (any bleeding), comparison of the two groups” value ([2]; on-treatment period, at month 3) was “comparable”. For the same compound, the “Kaplan-Meier cumulative incidence of first major bleeding, comparison of the two groups” value ([2]; FIG. 2, on-treatment period, after month 2) was “marked difference in major bleeding incidences between the two treatment groups, in favour of the idrabiotaparinux group”, the “Major bleeding, number of patients [n]” value ([2]; all treated population) was 3 and the “Any bleeding (clinically relevant major or non-major), % of patients” value ([2]; all treated population) was 5.2%. The “Any bleeding (clinically relevant major or non-major), number of patients [n]” value ([2]; all treated population) was 20, the “Major bleeding, % of patients (incidence)” value ([2]; all treated population) was 0.8% and the “Fatal bleeding: Gastrointestinal, number of patients [n]” value [2, 6] was 0. For the same compound, the “Fatal bleeding: Intracranial, number of patients [n]” value (shortened to “Fatal bleeding: Intracranial, number”) [2, 6] was 0, the “Fatal bleeding: Other, % of patients” value [2, 6] was 0.3% and the “Fatal bleeding: Other, number of patients [n]” value (from here on “Fatal bleeding: Other, number”) [2, 6] was 1. The “Non-fatal bleeding associated with a fall in hemoglobin >=2 g/dL and/or leading to a transfusion >=2 units of blood, % of patients” value [2, 6] was 0.5%, the “Non-fatal bleeding associated with a fall in hemoglobin >=2 g/dL and/or leading to a transfusion >=2 units of blood, number of patients [n]” value [2, 6] was 2 and the “Non-fatal bleeding into a critical organ: Intracranial, number of patients [n]” value [2, 6] was 0. The “Non-fatal bleeding into a critical organ: Other, number of patients [n]” value [2, 6] was 0, the “Non-fatal bleeding into a critical organ: Pericardial, number of patients [n]” value [2, 6] was 0 and the “Non-fatal bleeding into a critical organ: Retroperitoneal, number of patients [n]” value [2, 6] was 0. For the same compound, the “Fatal bleeding: Other, number” value ([2]; major bleedings up to D182 by adjudication criterion, all treated population, listed as idrabiotaparinux) was “One”, the “Safety (observed bleedings) compared with idraparinux” value ([2]; patients with DVT treated for 6 months, equimolar doses) was “better safety with less observed bleedings” and the “anti-activated factor X pharmacological activity (anti-Xa activity) compared with idraparinux” value [3] was “same”.
In the case of CO[C@H]1O[C@H](COS(=O)(=O)O)[C@@H](O[C@@H]2O[C@@H](C(=O)O)[C@@H](O[C@H]3O[C@H](COS(=O)(=O)O)[C@@H](O[C@@H]4O[C@H](C(=O)O)[C@@H](O[C@H]5O[C@H](COS(=O)(=O)O)[C@@H](OC)[C@H](OC)[C@H]5OC)[C@H](OC)[C@H]4OC)[C@H](OS(=O)(=O)O)[C@H]3OS(=O)(=O)O)[C@H](OC)[C@H]2OC)[C@H](OS(=O)(=O)O)[C@H]1OS(=O)(=O)O [Idraparinux, idraparinux], the “Incidence of clinically relevant bleedings (any bleedings)” value [4] is given as 8.3%, the “Rate of major bleedings” value [4] is given as 1.9% and the “Odds ratio for major bleedings, idraparinux versus standard treatment” value [5] is given as 1.245. For the same compound, the “Kaplan-Meier cumulative incidence of first bleeding (any bleeding), comparison of the two groups” value ([2]; on-treatment period, at month 6) was “higher than in the idrabiotaparinux group”, the “Major bleeding, number of patients [n]” value ([2]; all treated population) was 14 and the “Any bleeding (clinically relevant major or non-major), % of patients” value ([2]; all treated population) was 7.3%. For the same compound, the “Any bleeding (clinically relevant major or non-major), number of patients [n]” value ([2]; all treated population) was 27, the “Major bleeding, % of patients (incidence)” value ([2]; all treated population) was 3.8% and the “Fatal bleeding: Gastrointestinal, number of patients [n]” value [2, 6] was 0. For the same compound, the “Fatal bleeding: Intracranial, % of patients” value [2, 6] was 0.8%, the “Fatal bleeding: Intracranial, number” value [2, 6] was 3 and the “Fatal bleeding: Other, number” value [2, 6] was 0. For the same compound, the “Non-fatal bleeding associated with a fall in hemoglobin >=2 g/dL and/or leading to a transfusion >=2 units of blood, % of patients” value [2, 6] was 1.9%, the “Non-fatal bleeding associated with a fall in hemoglobin >=2 g/dL and/or leading to a transfusion >=2 units of blood, number of patients [n]” value [2, 6] was 7 and the “Non-fatal bleeding into a critical organ: Intracranial, % of patients” value [2, 6] was 0.5%. For the same compound, the “Non-fatal bleeding into a critical organ: Intracranial, number of patients [n]” value [2, 6] was 2, the “Non-fatal bleeding into a critical organ: Other, number of patients [n]” value [2, 6] was 0 and the “Non-fatal bleeding into a critical organ: Pericardial, number of patients [n]” value [2, 6] was 0. The “Non-fatal bleeding into a critical organ: Retroperitoneal, % of patients” value [2, 6] was 0.5%, the “Non-fatal bleeding into a critical organ: Retroperitoneal, number of patients [n]” value [2, 6] was 2 and the “Fatal bleeding: Intracranial, number” value ([2]; major bleedings up to D182 by adjudication criterion, all treated population, listed as idraparinux) was “three”. For the same compound, the “Intracranial hemorrhages observed (fatal and non-fatal), number” value ([2]; up to D182, all treated population) was “five”.
